Assay [1] has as its system Green Peach Aphid (GPA) (Myzus persicae) (MYZUPE). The experiment in a line: Bioassay for Green Peach Aphid (GPA), foliar spray on cabbage seedlings. Type of assay: in vivo. The conditions noted are these: 72 h, read-out: GPA 200 ppm, % Control (or Mortality) rating. An excerpt: Bioassay for Green Peach Aphid (GPA) (Myzus persicae) (MYZUPE)
The green peach aphid (Myzus persicae) is the most significant aphid pest of peach trees, causing decreased growth, shriveling of the leaves, and the death of various tissues. It is also hazardous because it acts as a vector for the transport of plant viruses, such as potato virus Y and potato leafroll virus to members of the nightshade/potato family Solanaceae, and various mosaic viruses to many other food crops. GPA attacks such plants as broccoli, burdock, cabbage, carrot, cauliflower, daikon, eggplant, green beans, lettuce, macadamia, papaya, peppers, sweet potatoes, tomatoes, watercress, and zucchini, among other plants GPA also attacks many ornamental crops such as carnation, chrysanthemum, flowering white cabbage, poinsettia, and roses. GPA has developed resistance to many pesticides.
Cabbage seedlings grown in 3-inch pots, with 2-3 small (3-5 cm) true leaves, were used as test substrate. The seedlings were infested with 20-50 GPA (wingless adult and nymph stages) one day prior to chemical application. Four pots with individual seedlings were used for each treatment. Test compounds (2 mg) were dissolved in 2 mL of acetone/methanol (1:1) solvent, forming stock solutions of 1000 ppm test compound. The stock solutions were diluted 5× with 0.025% Tween 20 in water to obtain the solution at 200 ppm test compound. A hand-held aspirator-type sprayer was used for spraying a solution to both sides of […] leaves until runoff. Reference plants (solvent check) were sprayed with the diluent only containing 20% by volume of acetone/methanol (1:1) solvent. Treated plants were held in a holding room for three days at approximately 25° C. and ambient relative humidity (RH) prior to grading. Evaluation was conducted by counting the number of live aphids per plant under a microscope. Percent control was measured by using Abbott's correction formula (W. S. Abbott, “A Method of Computing the Effectiveness of an Insecticide” J. Econ. Entomol. 18 (1925), pp. 265-267) as follows. Corrected % Control=100*(X−Y)/X
X=No. of live aphids on solvent check plants and
Y=No. of live aphids on treated plants
Biological Data for Green Peach Aphid (GPA) (MYZUPE) and Sweetpotato Whitefly-Crawler (WF) (BEMITA)” (see table section).
(§1) The mortality efficiency of the pesticidal compounds against GPA and WF insects was determined after treatment.

In assay [2] the test system is Sweetpotato Whitefly-Crawler (WF) (Bemisia tabaci) (BEMITA). The assay is described as follows: Insecticidal test for Sweetpotato Whitefly-Crawler (WF) in foliar spray assay on cotton plants. Type of assay: in vivo. The conditions noted are these: 216 h, 200 ppm foliar spray on cotton plants, graded after 9 days, Abbott corrected % control, read-out: WF 200 ppm, % Control (or Mortality) rating.
Description: Insecticidal Test for Sweetpotato Whitefly-Crawler (WF) (Bemisia tabaci) (BEMITA) in Foliar Spray Assay
The sweetpotato whitefly (Bemisia tabaci) has been reported as a serious pest of cultivated crops world-wide. It has an extremely wide host range attacking more than 500 species of plants from 63 plant families. Weeds often serve as alternate hosts of crop pests. Direct feeding damage is caused by the piercing and sucking sap from the foliage of plants. This feeding causes weakening and early wilting of the plant and reduces the plant growth rate and yield Indirect damage results by the accumulation of honeydew produced by the whiteflies. Honeydew serves as a substrate for the growth of black sooty mold on leaves and fruit reducing photosynthesis and lessens the market value of the plant or yield. […] The sweetpotato whitefly is considered the most common and important whitefly vector of plant viruses worldwide.
Cotton plants (Gossypium hirsutum) grown in 3-inch pots, with 1 small (4-5 cm) true leaves, were used as test substrate. The plants were infested with 200-400 whitefly eggs 4-5 days prior to chemical application. Four pots with individual plants were used for each treatment. Test compounds (2 mg) were dissolved in 1 mL of acetone solvent, forming stock solutions of 2000 ppm test compound. The stock solutions were diluted 10× with 0.025% Tween 20 in water (diluents) to obtain the solution at 200 ppm test compound. A hand-held aspirator-type sprayer was used for spraying a solution to both sides of cotton leaves until runoff. Reference plants (solvent check) were sprayed with the diluent only containing 10% by volume of acetone solvent. Treated plants were held in a holding room for 9 days at approximately 25° C. and ambient relative humidity (RH) prior to grading. Evaluation was conducted by counting the number of live 3-4 nymph stage per plant under a microscope. Percent control was measured by using Abbott's correction formula (W. S. Abbott, “A Method of Computing the Effectiveness of an Insecticide” J. Econ. Entomol. 18 (1925), pp. 265-267) as follows.
Biological Data for Green Peach Aphid (GPA) (MYZUPE) and Sweetpotato Whitefly-Crawler (WF) (BEMITA)” (see table section). Corrected % Control=100*(X−Y)/X
X=No. of live nymphs on solvent check plants and
Y=No. of live nymphs on treated plants
as §1

Where [3] appears, read: 200 ppm foliar spray on cabbage seedlings, graded after three days, Abbott corrected % control.

Where two headings read alike, the source gives them in different places.

One may read the mortality as the share of the test organisms that died. `CCN(C(=O)CC1CN(C)C1=O)c1cn(-c2cccnc2)nc1Cl` (stereo not drawn) [Compound F32, N-(3-chloro-1-(pyridin-3-yl)-1H-pyrazol-4-yl)-N-ethyl-2-(1-methyl-2-oxoazetidin-3-yl)acetamide]: the mortality at 200 ppm in assay [1] (setting [3]) and in assay [2] was 80 to 100% in each case.
`CCN(C(=O)COC(C)=O)c1cn(-c2cccnc2)nc1Cl` [FA72, 2-((3-Chloro-1-(pyridin-3-yl)-1H-pyrazol-4-yl)(ethyl)amino)-2-oxoethyl acetate]: the mortality at 200 ppm lay within 0 to 80% in assay [1] (setting [3]) and 80 to 100% in assay [2].
Turning to `CCN(C(=O)CCNC(=O)CC1CC1)c1cn(-c2cccnc2)nc1Cl` [Compound F75, N-(3-Chloro-1-(pyridin-3-yl)-1H-pyrazol-4-yl)-3-(2-cyclopropylacetamido)-N-ethylpropanamide], the mortality at 200 ppm in assay [1] (setting [3]) and in assay [2] was 80 to 100% in each case.
Regarding `CCN(C(=O)C(C)C/C=N/OCCC1CC1(F)F)c1cn(-c2cccnc2)nc1Cl` (stereo not drawn) [FA60, (E)-N-(3-Chloro-1-(pyridin-3-yl)-1H-pyrazol-4-yl)-4-((2-(2,2-difluorocyclopropyl)ethoxy)imino)-N-ethyl-2-methylbutanamide], the mortality at 200 ppm in assay [1] (setting [3]) and in assay [2] was 80 to 100% in each case.
Turning to `CCN(C(=O)C(C)Cl)c1cn(-c2cccnc2)nc1Cl` (stereo not drawn) [Compound C10, 2-Chloro-N-(3-chloro-1-(pyridin-3-yl)-1H-pyrazol-4-yl)-N-ethylpropanamide], the mortality at 200 ppm in assay [1] (setting [3]) and in assay [2] was 80 to 100% each time.
Take `CCN(C(=O)CC/C(C)=N/OCC1CC1(F)F)c1cn(-c2cccnc2)nc1Cl` (mixture of isomers) [Compound F72, (E/Z)-N-(3-chloro-1-(pyridin-3-yl)-1H-pyrazol-4-yl)-4-(((2,2-difluorocyclopropyl)methoxy)imino)-N-ethylpentanamide]: the mortality at 200 ppm in assay [1] (setting [3]) and in assay [2] was 80 to 100% each time.
As to `CCN(C(=O)CCC(=O)N(C)OC)c1cn(-c2cccnc2)nc1Cl` [Compound F78, N1-(3-Chloro-1-(pyridin-3-yl)-1H-pyrazol-4-yl)-N1-ethyl-N4-methoxy-N4-methylsuccinamide], the mortality at 200 ppm in assay [1] (setting [3]) and in assay [2] was 80 to 100% in each case.
As to `CCN(C(=O)CCC(=O)N1CCCC1)c1cn(-c2cccnc2)nc1Cl` [Compound F106, N-(3-Chloro-1-(pyridin-3-yl)-1H-pyrazol-4-yl)-N-ethyl-4-oxo-4-(pyrrolidin-1-yl)butanamide], the mortality at 200 ppm in assay [1] (setting [3]) and in assay [2] was 0 to 80% in each case.
As to `CCN(C(=O)C(C)N(C)C(C)=O)c1cn(-c2cccnc2)nc1Cl` (stereo not drawn) [Compound F96, N-(3-Chloro-1-(pyridin-3-yl)-1H-pyrazol-4-yl)-N-ethyl-2-(N-methylacetamido)propanamide], the mortality at 200 ppm in assay [1] (setting [3]) and in assay [2] was 80 to 100% in each case.
Turning to `CCN(C(=O)CCC1CN(CC2CC2(F)F)C1=O)c1cn(-c2cccnc2)nc1Cl` (stereo not drawn) [Compound F74, N-(3-Chloro-1-(pyridin-3-yl)-1H-pyrazol-4-yl)-3-1(1-((2,2-difluorocyclopropyl)methyl)-2-oxoazetidin-3-yl)-N-ethylpropanamide], the mortality at 200 ppm in assay [1] (setting [3]) and in assay [2] was 80 to 100% each time.
Turning to `CCN(C(=O)CCNCC(F)F)c1cn(-c2cccnc2)nc1Cl` [Compound C14, N-(3-chloro-1-(pyridin-3-yl)-1H-pyrazol-4-yl)-3-((2,2-difluoroethyl)amino)-N-ethylpropanamide], the mortality at 200 ppm in assay [1] (setting [3]) and in assay [2] was 80 to 100% each time.
In the case of `CCN(C(=O)CCNC(=O)C1CC1(F)F)c1cn(-c2cccnc2)nc1Cl` (stereo not drawn) [Compound F56, N-(3-((3-Chloro-1-(pyridin-3-yl)-1H-pyrazol-4-yl)(ethyl)amino)-3-oxopropyl)-2,2-difluorocyclopropanecarboxamide], the mortality at 200 ppm in assay [1] (setting [3]) and in assay [2] was 80 to 100% in each case.
Regarding `CCN(C(=O)CC/C(C)=N/Oc1cccc(C(F)(F)F)n1)c1cn(-c2cccnc2)nc1Cl` [Compound F59, (E/Z)-N-(3-Chloro-1-(pyridin-3-yl)-1H-pyrazol-4-yl)-N-ethyl-4-(((6-(trifluoromethyl)pyridin-2-yl)oxy)imino)pentanamide], the mortality at 200 ppm in assay [1] (setting [3]) and in assay [2] was 80 to 100% in each case.
For the compound `CN(C(=O)CCN1CCCCC1=O)c1cn(-c2cccnc2)nc1Cl` [Compound F49, N-(3-Chloro-1-(pyridin-3-yl)-1H-pyrazol-4-yl)-N-methyl-3-(2-oxopiperidin-1-yl)propanamide], the mortality at 200 ppm in assay [1] (setting [3]) and in assay [2] was 80 to 100% in each case.
Take `CCN(C(=O)CC/C(C)=N/OCc1noc(C(C)(C)C)n1)c1cn(-c2cccnc2)nc1Cl` [FA23, (E/Z)-4-(((5-(tert-Butyl)-1,2,4-oxadiazol-3-yl)methoxy)imino)-N-(3-chloro-1-(pyridin-3-yl)-1H-pyrazol-4-yl)-N-ethylpentanamide]: the mortality at 200 ppm in assay [1] (setting [3]) is 0 to 80%.
Same read-out and setting: the result for `CCN(C(=O)CC/C(C)=N/OCc1c(C)noc1C)c1cn(-c2cccnc2)nc1Cl` [FA25, (E/Z)-N-(3-Chloro-1-(pyridin-3-yl)-1H-pyrazol-4-yl)-4-(((3,5-dimethylisoxazol-4-yl)methoxy)imino)-N-ethylpentanamide] reads 0 to 80%; that for `CCN(C(=O)CC/C(C)=N/OCc1ncc(C(F)(F)F)cc1Cl)c1cn(-c2cccnc2)nc1Cl` [FA24, (E/Z)-N-(3-Chloro-1-(pyridin-3-yl)-1H-pyrazol-4-yl)-4-(((3-chloro-5-(trifluoromethyl)pyridin-2-yl)methoxy)imino)-N-ethylpentanamide], 0 to 80%.
On to `CC(C)(C)[Si](C)(C)N1CC(CC(=O)O)C1=O` (stereo not drawn) [Compound C3, 2-(1-(tert-butyldimethylsilyl)-2-oxoacetidin-3-yl)acetic acid], for which, in assay [1] (foliar), the mortality at 200 ppm was in the range of 0 to 80%.
`CCN(C(=O)C(C)C/C(C)=N/OCCC1CC1(F)F)c1cn(-c2cccnc2)nc1Cl` (stereo not drawn) [FA58, (E)-N-(3-Chloro-1-(pyridin-3-yl)-1H-pyrazol-4-yl)-4-((2-(2,2-difluorocyclopropyl)ethoxy)imino)-N-ethyl-2-methylpentanamide]: the mortality at 200 ppm in assay [1] (setting [3]) fell in the range of 80 to 100%.
The same measure, in the same setting: as for `CCN(C(=O)CC/C(C)=N/OCC1CC(F)(F)C1)c1cn(-c2cccnc2)nc1Cl` [FA21, (E/Z)-N-(3-Chloro-1-(pyridin-3-yl)-1H-pyrazol-4-yl)-4-(((3,3-difluorocyclobutyl)methoxy)imino)-N-ethylpentanamide], the figure is 0 to 80%; as for `C=CCC(C)C(=O)N(CC)c1cn(-c2cccnc2)nc1Cl` (stereo not drawn) [CA1, N-[3-Chloro-1-(3-pyridyl)pyrazol-4-yl]-N-ethyl-2-methyl-pent-4-enamide], 80 to 100%.
For `CC(C)(C)[Si](C)(C)N1CC(CCC(=O)O)C1=O` (stereo not drawn) [Compound C4, 3-(1-(tert-Butyldimethylsilyl)-2-oxoazetidin-3-yl)propanoic acid], in assay [1] (foliar), the mortality at 200 ppm fell in the range of 0 to 80%.

For the origin of these results see patent US9523100B2, “Pesticidal compositions and related methods” (DOW AGROSCIENCES LLC, priority 2013, dated 2016).
